Assays:
[1] = In vivo antitumor activity expressed as lethal dose with daily administration schedule against P388 murine leukemia cells; format: ADME, organism-based; conditions: mouse
L1210 [2] = assay: Cytotoxicity inhibition against cultured L1210 cells at 200 uM; format: functional; conditions: Mus musculus
L1210 [3] = assay: Cytotoxicity inhibition against cultured L1210 cells at 400 uM; format: functional; conditions: Mus musculus

| SMILES | LD50 [1] [mg/kg] | inhibition at 200 µM (L1210 [2]) [%] | inhibition at 400 µM (L1210 [3]) [%] |
| --- | --- | --- | --- |
| O=C1C=CC(=O)N1C1O[C@H](CO)[C@@H](O)[C@H]1O (stereo partly specified) | 35 | – | – |
| CC(=O)OC[C@H]1O[C@@H](N2C(=O)C=CC2=O)[C@H](OC(C)=O)[C@@H]1OC(C)=O | 10 | – | – |
| O=C1C=C(Cl)C(=O)N1C1O[C@H](CO)[C@@H](O)[C@H]1O (stereo partly specified) | 18 | – | – |
| CC1=CC(=O)N(C2O[C@H](CO)[C@@H](O)[C@H]2O)C1=O (stereo partly specified) | 100 | 95 | 85 |
